Assay results from US20200217852A1, “Quantitation of Free and Total N-Acetylcysteine Amide and Its Metabolite N-Acetylcysteine in Human Plasma Using Derivatization and Electrospray LC-MS/MS” (NACUITY PHARMACEUTICALS, INC., priority 2019, published 2020).
Read-outs that look alike come from different tables or passages of the source.

Columns and labels:
[1] = Stability of underivatized NAC and NACA thiol in plasma monitored directly by HILIC LC-MS/MS; assay type: in vitro ADME; conditions: human, room temperature, read-out: Half-lives for thiol disappearance
Procedure: Half-lives for thiol disappearance were approximately 10 minutes at room temperature. Therefore, the inventors sought to stabilize NAC and NACA by derivatization. When plasma samples spiked with NAC and NACA were treated with TCEP and CMPI, the thiols were well recovered as the thioether derivatives.
(§1) All stability testing in plasma (benchtop, freeze/thaw, and long-term storage) was performed using QC samples prepared in both CMPI-fortified plasma as well as unfortified plasma. In this manner, the stabilities of both the oxidized thiols (in disulfide forms) and the thioether derivatives were tested, since it was assumed that unknown samples would likely contain some of both species. The CMPI-thioethers were stable for at least 5 freeze/thaw cycles and for at least 20 hours at room temperature, as compared to less than 1 hour for the underivatized free thiols. The oxidized thiols were stable for at least 5 freeze/thaw cycles and for at least 22 hours, as evidenced by their full recovery as thioethers when assayed using the total method. Stability was also tested in extracts, whether held for first injection or reinjected. Extracts were stable for over 90 hours when refrigerated. Precision and accuracy was acceptable in lipemic and hemolyzed plasma.

[2] = assay type: in vitro ADME; conditions: human
Procedure: Calibration standards (CS) were prepared by mixing CMPI-fortified control matrix (95 parts) with the respective spiking solution (5 parts) to make 50.0, 40.0, 20.0, 5.00, 2.50, 0.500, 0.100, and 0.050 μg/mL NAC/NACA pools which were stable for at least 80 days when stored at −20° C. and for 284 days when stored at −80° C. It was critical that CS pools be spiked quickly after CMPI fortification of the plasma, with the lowest concentration pools being spiked first, within 5-10 minutes of mixing plasma with CMPI.
Validation. The method was validated according to regulatory guidances. Three independently prepared analytical runs were executed to test the linearity of the calibration curve and the precision and accuracy of measuring validation samples (over 4 concentrations). Additional runs to evaluate recovery, matrix factor/suppression effects, reinjection reproducibility, and carryover were also performed. The selectivity of the method was evaluated over 10 lots of human plasma and the same lots were spiked at the mid QC level to verify inter-subject precision and accuracy. Freeze/thaw, benchtop, and autosampler stabilities were determined. Precision and accuracy data were also generated in lipemic and hemolyzed plasma lots, and stability in whole blood was tested. Long run lengths (up to 192 samples over 2 plates) were evaluated to determine whether the analytical system was reliable over twice the expected duty cycle.
as §1

half-life [1]: ~10 min | Stability of calibration standard pools ([2]; 80 days): at least 80 days | Stability of calibration standard pools ([2]; 284 days): 284 days
SMILES: CC(=O)N[C@@H](CS)C(=O)O [NAC, N-acetyl-L-cysteine]
Freeze/Thaw Stability [2]: At least 5 cycles, at either −20 °C or −80° C., either analyte | Benchtop Stability ([2]; 20 hours): At least 20 hours at room temperature, either analyte
